Results published in ChEMBL document CHEMBL3808337, “Rapid Discovery of Pyrido[3,4-d]pyrimidine Inhibitors of Monopolar Spindle Kinase 1 (MPS1) Using a Structure-Based Hybridization Approach” (J Med Chem, 2016).
Blank lines part the entries; values can stand above or below the molecule they belong to.

How the values were obtained:
[1] = Drug metabolism in CD1 mouse liver microsomes at 10 uM after 30 mins by LCMS analysis; assay type: ADME; conditions: read-out: Drug metabolism
[2] = Antiproliferative activity against human HCT116 cells assessed as cell viability after 72 hrs by MTT assay; assay type: functional; conditions: HCT-116, 72 h
[3] = target: CDK2/Cyclin A2 (Homo sapiens, UniProt P24941)
[4] = target: Serine/threonine-protein kinase PLK1 (Homo sapiens, UniProt P53350); assay: Inhibition of human full length recombinant His-tagged PLK1 expressed in baculovirus by Z'-LYTE assay
Chain of Serine/threonine-protein kinase PLK1 (P53350 whole entry): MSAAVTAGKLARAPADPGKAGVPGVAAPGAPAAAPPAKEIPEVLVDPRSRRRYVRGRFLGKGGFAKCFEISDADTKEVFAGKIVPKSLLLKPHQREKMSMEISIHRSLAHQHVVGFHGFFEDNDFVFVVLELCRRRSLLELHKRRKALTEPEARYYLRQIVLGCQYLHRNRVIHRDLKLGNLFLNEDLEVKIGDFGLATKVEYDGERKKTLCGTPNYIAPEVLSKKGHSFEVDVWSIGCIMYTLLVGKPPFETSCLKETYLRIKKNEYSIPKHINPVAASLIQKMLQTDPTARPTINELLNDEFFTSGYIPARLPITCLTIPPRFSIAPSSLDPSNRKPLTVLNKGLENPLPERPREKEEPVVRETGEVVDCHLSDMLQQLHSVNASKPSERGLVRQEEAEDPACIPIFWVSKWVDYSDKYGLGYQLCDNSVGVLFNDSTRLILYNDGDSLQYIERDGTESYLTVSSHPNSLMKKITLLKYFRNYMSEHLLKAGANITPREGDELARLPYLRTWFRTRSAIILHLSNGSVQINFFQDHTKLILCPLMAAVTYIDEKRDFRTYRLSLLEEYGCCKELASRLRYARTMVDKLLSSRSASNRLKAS

[5] = target: Mitogen-activated protein kinase 8 (Homo sapiens, UniProt P45983); assay: Inhibition of human full length recombinant His-tagged JNK1 expressed in baculovirus by lanthascreen assay
Chain of Mitogen-activated protein kinase 8 (P45983 whole entry): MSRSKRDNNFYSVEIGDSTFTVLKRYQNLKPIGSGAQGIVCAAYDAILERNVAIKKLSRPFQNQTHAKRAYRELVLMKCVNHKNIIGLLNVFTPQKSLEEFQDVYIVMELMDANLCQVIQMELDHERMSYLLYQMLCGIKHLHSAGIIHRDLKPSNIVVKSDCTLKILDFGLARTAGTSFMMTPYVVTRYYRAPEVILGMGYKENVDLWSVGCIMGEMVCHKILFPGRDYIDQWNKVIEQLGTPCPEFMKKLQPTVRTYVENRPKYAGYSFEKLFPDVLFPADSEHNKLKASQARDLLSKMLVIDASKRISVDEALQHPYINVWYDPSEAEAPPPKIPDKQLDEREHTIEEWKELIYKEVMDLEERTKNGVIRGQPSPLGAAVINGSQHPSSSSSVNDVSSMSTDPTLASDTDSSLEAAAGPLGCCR

[6] = target: Mitogen-activated protein kinase 9 (Homo sapiens, UniProt P45984); assay: Inhibition of human full length recombinant His-tagged JNK2 expressed in baculovirus by lanthascreen assay
Chain of Mitogen-activated protein kinase 9 (P45984 whole entry): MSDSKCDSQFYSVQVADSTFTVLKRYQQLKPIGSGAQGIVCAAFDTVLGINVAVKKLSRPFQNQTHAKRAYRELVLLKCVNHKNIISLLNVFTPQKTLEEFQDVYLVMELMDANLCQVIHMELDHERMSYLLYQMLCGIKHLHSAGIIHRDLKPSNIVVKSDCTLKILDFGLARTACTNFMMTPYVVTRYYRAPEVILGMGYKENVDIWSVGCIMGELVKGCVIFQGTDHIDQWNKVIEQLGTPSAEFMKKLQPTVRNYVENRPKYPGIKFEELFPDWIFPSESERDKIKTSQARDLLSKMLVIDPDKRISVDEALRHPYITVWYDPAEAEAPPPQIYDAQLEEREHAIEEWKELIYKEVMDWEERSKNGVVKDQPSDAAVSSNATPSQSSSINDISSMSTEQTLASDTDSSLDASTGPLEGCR

[7] = Antiproliferative activity against human SW620 cells assessed as cell viability after 72 hrs by MTT assay; assay type: functional; conditions: SW-620, 72 h
[8] = Antiproliferative activity against human CAL27 cells assessed as cell viability after 72 hrs by MTT assay; assay type: functional; conditions: CAL-27, 72 h
[9] = Antiproliferative activity against human CAL51 cells assessed as cell viability after 72 hrs by MTT assay; assay type: functional; conditions: CAL-51, 72 h
[10] = Antiproliferative activity against human MIAPaCa2 cells assessed as cell viability after 72 hrs by MTT assay; assay type: functional; conditions: MIA PaCa-2, 72 h
[11] = Antiproliferative activity against human RMG-1 cells assessed as cell viability after 72 hrs by MTT assay; assay type: functional; conditions: RMG-I
[12] = Antiproliferative activity against human PNT2 cells assessed as cell viability after 72 hrs by MTT assay; assay type: functional; conditions: PNT2, 72 h
[13] = target: T1, Cytochrome P450 2A6 (Homo sapiens, UniProt P11509); assay: Inhibition of CYP2A6 (unknown origin); assay type: ADME
T1 sequence (P11509 whole entry): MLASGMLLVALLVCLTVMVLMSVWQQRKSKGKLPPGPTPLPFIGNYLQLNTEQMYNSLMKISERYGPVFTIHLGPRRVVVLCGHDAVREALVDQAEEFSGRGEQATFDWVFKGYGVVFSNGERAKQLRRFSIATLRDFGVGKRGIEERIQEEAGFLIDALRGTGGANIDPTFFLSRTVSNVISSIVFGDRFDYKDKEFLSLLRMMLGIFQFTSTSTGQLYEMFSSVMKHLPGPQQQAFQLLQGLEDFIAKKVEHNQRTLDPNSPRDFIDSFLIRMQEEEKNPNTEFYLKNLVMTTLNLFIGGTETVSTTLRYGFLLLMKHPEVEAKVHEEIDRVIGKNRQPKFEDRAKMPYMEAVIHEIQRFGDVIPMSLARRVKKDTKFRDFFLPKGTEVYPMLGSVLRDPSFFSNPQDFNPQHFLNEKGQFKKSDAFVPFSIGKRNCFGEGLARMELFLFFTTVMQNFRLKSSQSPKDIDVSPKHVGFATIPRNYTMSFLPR

[14] = target: T2, Cytochrome P450 2B6 (Homo sapiens, UniProt P20813); assay: Inhibition of CYP2B6 (unknown origin); assay type: ADME
T2 sequence (P20813 whole entry): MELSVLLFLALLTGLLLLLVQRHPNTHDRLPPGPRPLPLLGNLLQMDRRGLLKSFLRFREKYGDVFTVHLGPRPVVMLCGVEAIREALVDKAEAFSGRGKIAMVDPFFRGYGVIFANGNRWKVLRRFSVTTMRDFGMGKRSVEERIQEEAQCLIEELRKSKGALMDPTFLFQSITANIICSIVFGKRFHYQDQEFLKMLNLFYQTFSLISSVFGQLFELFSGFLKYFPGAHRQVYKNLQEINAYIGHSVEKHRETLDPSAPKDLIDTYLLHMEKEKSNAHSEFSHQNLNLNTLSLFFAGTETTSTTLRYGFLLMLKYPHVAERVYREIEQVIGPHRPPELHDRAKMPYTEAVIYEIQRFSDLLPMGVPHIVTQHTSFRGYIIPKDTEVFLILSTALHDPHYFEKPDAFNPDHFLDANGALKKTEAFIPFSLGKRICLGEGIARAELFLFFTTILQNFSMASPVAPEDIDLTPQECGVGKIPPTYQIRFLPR

[15] = target: T3, Cytochrome P450 3A4 (Homo sapiens, UniProt P08684); assay: Inhibition of CYP3A4T (unknown origin); assay type: ADME
T3 sequence (P08684 whole entry): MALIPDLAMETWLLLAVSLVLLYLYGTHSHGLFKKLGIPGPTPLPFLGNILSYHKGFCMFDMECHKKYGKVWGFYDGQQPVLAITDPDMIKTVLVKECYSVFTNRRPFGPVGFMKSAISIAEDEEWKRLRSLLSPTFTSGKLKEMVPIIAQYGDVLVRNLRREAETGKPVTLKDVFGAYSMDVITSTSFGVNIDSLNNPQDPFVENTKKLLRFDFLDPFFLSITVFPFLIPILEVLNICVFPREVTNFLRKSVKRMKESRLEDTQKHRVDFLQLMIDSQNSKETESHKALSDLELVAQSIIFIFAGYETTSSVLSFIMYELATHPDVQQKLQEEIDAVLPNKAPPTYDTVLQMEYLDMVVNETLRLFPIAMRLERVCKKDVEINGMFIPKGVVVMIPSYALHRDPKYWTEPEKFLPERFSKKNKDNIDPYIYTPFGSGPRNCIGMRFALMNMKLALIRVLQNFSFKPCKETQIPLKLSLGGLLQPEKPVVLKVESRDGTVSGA

[16] = target: T3, Cytochrome P450 3A4; assay: Inhibition of CYP3A4 (unknown origin) using midazolam as substrate; assay type: ADME
[17] = target: T3, Cytochrome P450 3A4; assay: Inhibition of CYP3A4 (unknown origin) using testosterone as substrate; assay type: ADME
[18] = target: Cytochrome P450 2C9 (Homo sapiens, UniProt P11712); assay: Inhibition of CYP2C9 (unknown origin); assay type: ADME; conditions: human
Chain of Cytochrome P450 2C9 (P11712 whole entry): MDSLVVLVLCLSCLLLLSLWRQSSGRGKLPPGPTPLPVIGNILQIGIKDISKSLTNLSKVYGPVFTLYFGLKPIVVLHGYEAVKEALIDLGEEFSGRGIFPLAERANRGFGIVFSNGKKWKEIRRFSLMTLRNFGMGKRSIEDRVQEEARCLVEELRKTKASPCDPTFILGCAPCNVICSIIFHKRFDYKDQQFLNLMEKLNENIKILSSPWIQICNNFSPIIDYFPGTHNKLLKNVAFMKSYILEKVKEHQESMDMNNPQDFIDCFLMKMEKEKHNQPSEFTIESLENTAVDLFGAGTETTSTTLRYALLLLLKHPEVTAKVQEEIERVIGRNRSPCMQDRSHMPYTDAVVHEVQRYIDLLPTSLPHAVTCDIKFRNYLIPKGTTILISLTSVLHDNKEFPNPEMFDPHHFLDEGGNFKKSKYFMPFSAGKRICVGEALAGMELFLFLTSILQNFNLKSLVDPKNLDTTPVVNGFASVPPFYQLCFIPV

[19] = target: T4, Cytochrome P450 1A2 (Homo sapiens, UniProt P05177); assay: Inhibition of CYP1A2 (unknown origin); assay type: ADME; conditions: human
T4 sequence (P05177 whole entry): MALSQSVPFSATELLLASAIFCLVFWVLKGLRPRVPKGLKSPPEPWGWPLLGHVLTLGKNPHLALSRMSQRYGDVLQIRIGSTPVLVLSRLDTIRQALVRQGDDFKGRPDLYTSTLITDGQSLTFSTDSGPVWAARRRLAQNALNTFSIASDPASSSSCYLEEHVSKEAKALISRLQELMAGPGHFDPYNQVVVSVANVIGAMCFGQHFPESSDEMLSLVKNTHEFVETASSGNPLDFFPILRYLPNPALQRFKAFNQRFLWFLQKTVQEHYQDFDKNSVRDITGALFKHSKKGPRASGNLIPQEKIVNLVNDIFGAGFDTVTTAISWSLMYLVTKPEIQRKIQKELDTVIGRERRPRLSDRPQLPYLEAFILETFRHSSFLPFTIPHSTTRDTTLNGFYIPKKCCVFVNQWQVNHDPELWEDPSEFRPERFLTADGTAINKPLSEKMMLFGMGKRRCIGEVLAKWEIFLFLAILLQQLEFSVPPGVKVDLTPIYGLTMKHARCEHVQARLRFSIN

[20] = target: Cytochrome P450 2C19 (Homo sapiens, UniProt P33261); assay: Inhibition of CYP2C19 (unknown origin); assay type: ADME; conditions: human
Chain of Cytochrome P450 2C19 (P33261 whole entry): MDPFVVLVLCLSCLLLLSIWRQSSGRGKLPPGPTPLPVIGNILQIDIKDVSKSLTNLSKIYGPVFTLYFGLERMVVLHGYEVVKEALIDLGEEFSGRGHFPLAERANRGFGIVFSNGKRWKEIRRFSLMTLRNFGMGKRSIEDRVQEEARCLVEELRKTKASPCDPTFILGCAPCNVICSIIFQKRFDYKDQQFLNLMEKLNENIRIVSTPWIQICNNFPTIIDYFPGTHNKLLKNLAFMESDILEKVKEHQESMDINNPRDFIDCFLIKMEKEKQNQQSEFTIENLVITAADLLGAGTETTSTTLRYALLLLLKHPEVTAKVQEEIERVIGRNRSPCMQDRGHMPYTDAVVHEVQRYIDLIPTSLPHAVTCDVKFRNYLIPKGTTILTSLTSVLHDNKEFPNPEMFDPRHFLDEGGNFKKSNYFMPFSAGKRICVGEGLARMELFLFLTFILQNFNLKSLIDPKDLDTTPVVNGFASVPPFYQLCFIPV

[21] = target: T5, Cytochrome P450 2C8 (Homo sapiens, UniProt P10632); assay: Inhibition of CYP2C8 (unknown origin); assay type: ADME
T5 sequence (P10632 whole entry): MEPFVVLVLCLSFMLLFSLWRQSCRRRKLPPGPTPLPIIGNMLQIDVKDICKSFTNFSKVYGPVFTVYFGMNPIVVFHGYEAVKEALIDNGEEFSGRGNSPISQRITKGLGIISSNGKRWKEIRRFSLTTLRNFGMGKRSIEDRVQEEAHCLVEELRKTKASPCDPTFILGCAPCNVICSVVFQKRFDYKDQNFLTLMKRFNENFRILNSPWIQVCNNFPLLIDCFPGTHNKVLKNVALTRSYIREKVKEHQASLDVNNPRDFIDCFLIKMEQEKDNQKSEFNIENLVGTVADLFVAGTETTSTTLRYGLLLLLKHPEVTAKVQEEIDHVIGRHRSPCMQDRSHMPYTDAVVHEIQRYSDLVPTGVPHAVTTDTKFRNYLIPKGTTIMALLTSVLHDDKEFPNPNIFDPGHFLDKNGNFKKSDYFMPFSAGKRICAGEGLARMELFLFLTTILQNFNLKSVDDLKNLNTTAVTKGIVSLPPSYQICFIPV

[22] = target: Voltage-gated inwardly rectifying potassium channel KCNH2 (Homo sapiens, UniProt Q12809); assay: Inhibition of human ERG at 1 to 10 uM
Chain of Voltage-gated inwardly rectifying potassium channel KCNH2 (Q12809 whole entry): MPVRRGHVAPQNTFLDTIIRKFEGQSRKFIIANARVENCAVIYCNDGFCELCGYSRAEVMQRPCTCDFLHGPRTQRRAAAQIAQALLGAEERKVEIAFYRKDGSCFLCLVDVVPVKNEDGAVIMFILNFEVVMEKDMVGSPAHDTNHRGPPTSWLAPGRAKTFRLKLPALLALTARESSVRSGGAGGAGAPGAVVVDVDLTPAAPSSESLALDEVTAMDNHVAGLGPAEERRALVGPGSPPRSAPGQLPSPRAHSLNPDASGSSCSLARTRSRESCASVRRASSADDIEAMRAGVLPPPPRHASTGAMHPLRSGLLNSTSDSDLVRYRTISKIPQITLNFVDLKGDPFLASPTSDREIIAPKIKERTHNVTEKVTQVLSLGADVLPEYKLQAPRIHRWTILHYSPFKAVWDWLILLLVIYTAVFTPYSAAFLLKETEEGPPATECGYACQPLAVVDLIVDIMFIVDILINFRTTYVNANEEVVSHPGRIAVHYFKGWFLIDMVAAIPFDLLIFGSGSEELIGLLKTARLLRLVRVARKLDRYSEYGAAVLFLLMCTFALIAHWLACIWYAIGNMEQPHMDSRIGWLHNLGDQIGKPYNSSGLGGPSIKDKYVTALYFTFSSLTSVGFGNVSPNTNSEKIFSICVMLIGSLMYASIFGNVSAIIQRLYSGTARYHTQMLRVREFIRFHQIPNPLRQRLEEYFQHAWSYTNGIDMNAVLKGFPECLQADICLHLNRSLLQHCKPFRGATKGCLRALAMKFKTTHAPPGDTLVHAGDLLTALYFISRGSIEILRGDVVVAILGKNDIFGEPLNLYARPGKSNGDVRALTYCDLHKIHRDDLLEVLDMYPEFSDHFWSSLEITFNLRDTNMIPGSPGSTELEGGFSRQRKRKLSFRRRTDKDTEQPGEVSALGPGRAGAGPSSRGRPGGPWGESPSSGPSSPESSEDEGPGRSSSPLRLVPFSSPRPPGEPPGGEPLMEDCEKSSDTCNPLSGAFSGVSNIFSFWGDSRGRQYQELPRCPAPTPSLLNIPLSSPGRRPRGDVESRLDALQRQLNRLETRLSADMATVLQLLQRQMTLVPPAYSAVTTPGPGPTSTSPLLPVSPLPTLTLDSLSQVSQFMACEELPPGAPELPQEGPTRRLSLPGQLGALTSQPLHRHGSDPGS

[23] = Drug metabolism in Sprague-Dawley rat liver microsomes at 10 uM after 30 mins by LCMS analysis; assay type: ADME; conditions: read-out: Drug metabolism
[24] = Drug metabolism in human liver microsomes at 10 uM after 30 mins by LCMS analysis; assay type: ADME; conditions: read-out: Drug metabolism
[25] = Half life in Balb/C mouse blood at 5 mg/kg, iv or po after 24 hrs by ESI-LCMS/MS analysis; assay type: ADME, organism-based
[26] = Half life in Sprague-Dawley rat blood at 5 mg/kg, iv or po […] by ESI-LCMS/MS analysis; assay type: ADME, organism-based
[27] = Clearance in Balb/C mouse blood at 5 mg/kg, iv or po after 24 hrs by ESI-LCMS/MS analysis; assay type: ADME, organism-based
[28] = Clearance in Sprague-Dawley rat blood at 5 mg/kg, iv or po after 24 hrs by ESI-LCMS/MS analysis; assay type: ADME, organism-based
[29] = Cmax in Balb/C mouse blood at 5 mg/kg, po after 24 hrs by ESI-LCMS/MS analysis; assay type: ADME, organism-based; set-up: dose 5 mg/kg, route oral
[30] = Cmax in Sprague-Dawley rat blood at 5 mg/kg, po after 24 hrs by ESI-LCMS/MS analysis; assay type: ADME, organism-based; set-up: dose 5 mg/kg, route oral
[31] = AUC in Balb/C mouse blood at 5 mg/kg, po after 24 hrs by ESI-LCMS/MS analysis; assay type: ADME, organism-based; set-up: time < 24 hr, dose 5 mg/kg, route oral
[32] = AUC in Sprague-Dawley rat blood at 5 mg/kg, po after 24 hrs by ESI-LCMS/MS analysis; assay type: ADME, organism-based; set-up: time < 24 hr, dose 5 mg/kg, route oral
[33] = Plasma protein binding in Balb/C mouse at 5 mg/kg, iv or po after 24 hrs by ESI-LCMS/MS analysis; assay type: ADME, organism-based; conditions: read-out: PPB (converted)
[34] = Plasma protein binding in Sprague-Dawley rat at 5 mg/kg, iv or po after 24 hrs by ESI-LCMS/MS analysis; assay type: ADME, organism-based; conditions: read-out: PPB (converted)
[35] = Volume of distribution at steady state in Balb/C mouse at 5 mg/kg, iv or po after 24 hrs by ESI-LCMS/MS analysis; assay type: ADME, organism-based; conditions: in vivo, read-out: Vdss
[36] = Volume of distribution at steady state in Sprague-Dawley rat at 5 mg/kg, iv or po after 24 hrs by ESI-LCMS/MS analysis; assay type: ADME, organism-based; conditions: in vivo, read-out: Vdss
[37] = Oral bioavailability in Balb/C mouse at 5 mg/kg after 24 hrs by ESI-LCMS/MS analysis; assay type: ADME, organism-based; conditions: in vivo
[38] = Oral bioavailability in Sprague-Dawley rat at 5 mg/kg after 24 hrs by ESI-LCMS/MS analysis; assay type: ADME, organism-based; conditions: in vivo

Compound: COc1cc(-c2cnn(C)c2)ccc1Nc1ncc2ccnc(-c3cnn(C)c3)c2n1
metabolised at 0.5 h, 10 µM [1]: 73%

Compound: COc1cc(-c2cnn(C)c2)ccc1Nc1ncc2ccnc(N[C@@H](C)C(C)(C)C)c2n1
metabolised at 0.5 h, 10 µM [1]: 27%
GI50 [2]: 0.16 µM
IC50 [4]: > 100 µM
IC50 [5]: 0.11 µM
IC50 [6]: 0.22 µM
GI50 [7]: 0.065 µM
GI50 [8]: 0.23 µM
GI50 [9]: 0.068 µM
GI50 [10]: 0.25 µM
GI50 [11]: 0.11 µM
GI50 [12]: 3.95 µM
inhibition (INH) [13]: Not Active
inhibition (INH) [14]: Not Active
inhibition (INH) [15]: Not Active
inhibition (INH) [16]: Not Active
inhibition (INH) [17]: Not Active
inhibition (INH) [18]: Not Active
inhibition (INH) [19]: Not Active
inhibition (INH) [20]: Not Active
inhibition (INH) [21]: Not Active
inhibition (INH) [22]: Not Active
metabolised at 0.5 h, 10 µM [23]: 24%
metabolised at 0.5 h, 10 µM [24]: 70%
half-life [25]: 8.2 h
half-life [26]: 2.5 h
clearance [27]: 1.68 L/h/kg
clearance [28]: 1.44 L/h/kg
Cmax [29]: 0.77 µM
Cmax [30]: 0.56 µM
AUC at 24 h [31]: 4.8 µM·h
AUC at 24 h [32]: 9.3 µM·h
fraction unbound at 24 h [33]: 0.0002
fraction unbound at 24 h [34]: 0.0003
Vd [35]: 14.7 L/kg
Vd [36]: 4.64 L/kg
bioavailability [37]: 68%
bioavailability [38]: 100%

Compound: COc1ccc(Nc2cc3c(-c4cnn(C)c4)cccc3cn2)cc1
IC50 [3]: 1.22 µM

Compound: CC(C)Oc1cc(-c2cnn(C)c2)ccc1Nc1ncc2ccnc(-c3cnn(C)c3)c2n1
metabolised at 0.5 h, 10 µM [1]: 45%
IC50 [3]: > 10 µM

Now from value to molecule, other results behind:

metabolised at 0.5 h, 10 µM [1]: 59%
Compound: COCCOc1cc(-c2cnn(C)c2)ccc1Nc1ncc2ccnc(-c3cnn(C)c3)c2n1

metabolised at 0.5 h, 10 µM [1]: 66%
Compound: COc1cc(-c2cnn(C)c2)ccc1Nc1ncc2ccnc(NCC(C)C)c2n1
GI50 [2]: 1.1 µM

IC50 [3]: 31.1 µM
Compound: COc1ccc(Nc2cc3c(-c4ccco4)cccc3cn2)cc1

metabolised at 0.5 h, 10 µM [1]: 33%
Compound: COc1cc(-c2cnn(C)c2)ccc1Nc1ncc2ccnc(NCC3CC3)c2n1
GI50 [2]: 0.32 µM

IC50 [3]: > 10 µM
Compound: COc1cc(-c2cnn(C)c2)ccc1Nc1ncc2ccnc(SC3CCCCC3)c2n1
